Reference: paper PMC4932917, “Structural basis for acyl-group discrimination by human Gcn5L2” (Acta Crystallographica. Section D, Structural Biology, 2016)

Molecular target: T1, human Gcn5L2 (hsGcn5L2) (Homo sapiens, UniProt Q92830)
T1 construct: gene KAT2A; catalytic domain, amino acids 497–662
Assay: X-ray crystal structure ([…] Å); Ki from enzyme-coupled acetylation assay on purified catalytic domain
Assay type: biochemical

T1 sequence (Q92830 497-662): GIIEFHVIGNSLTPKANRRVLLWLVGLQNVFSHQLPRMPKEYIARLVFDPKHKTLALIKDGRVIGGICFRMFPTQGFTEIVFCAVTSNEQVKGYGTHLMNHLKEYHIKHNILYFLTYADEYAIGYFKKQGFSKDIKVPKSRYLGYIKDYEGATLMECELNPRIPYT

Ki: 5.6 ± 0.7 µM
Compound: CCCC(=O)SCCNC(=O)CCNC(=O)[C@H](O)C(C)(C)COP(=O)(O)OP(=O)(O)OC[C@H]1O[C@@H](n2cnc3c(N)ncnc32)[C@H](O)[C@@H]1OP(=O)(O)O [butyryl-CoA]
